Assays:
[1] = HPLC assay for profiling solution reactivity and stability of purine fragments (probes) with amino acid mimetics; type: physicochemical; details: for effect of amine group at the 2 position on electrophilic character / adducts formed, based on HPLC traces / reaction kinetics compared to N9 counterparts: butanethiol; for reaction kinetics compared to N9 counterparts: versus Pu-2, Pu-4, Pu-10; for reaction with butanethiol: cysteine mimetic, on ice 6 h; for effect of position of the halogen leaving group on reactivity: 6 position versus 2 position (Pu-3 versus Pu-5, Pu-4 versus Pu-6)
Protocol: HPLC assay for profiling solution reactivity and stability of purine fragments: The following reagents were prepared and stored on ice prior to use. 0.1 molar (M) solution of caffeine in acetonitrile, 1.0 M solution of amino acid mimetic (butanethiol—cysteine mimetic; n-butylamine—lysine mimetic; p-cresol—tyrosine mimetic; propionamide-asparagine/glutamine mimetic; butyric acid—aspartic/glutamic acid mimetic), tetramethylguanidine (TMG), 1 M acetic acid (HOAc) in acetonitrile (ACN) and 10 mM solution of purine fragment in ACN mixture. 500 μL of fragment solution were transferred to a dram vial on ice. To the mixture, 5.5 μL of TMG and 5.5 μL of respective amino acid mimetic were added and solutions were stirred on ice for 6 h. To monitor reactivity, 50 μL aliquots were removed at indicated time points and quenched with 10 μL of a 1:1 mixture of caffeine and HOAc. Samples were injected (1 μL) and analyzed by reverse-phase HPLC on a Shimadzu 1100 Series spectrometer (Shimadzu Corporation, Kyoto, Japan) with UV detection at 254 nm. Reaction progress was evaluated by monitoring consumption of starting material (purine fragment) normalized to caffeine standard. Chromatographic separation was performed using a Phenomenex Kinetex C18 column (2.6 μm, 50×4.6 mm; Phenomenex, Torrance, Calif., United States of America). Mobile phases A and B were composed of H2O+0.1% HOAc and ACN+0.1% HOAc, respectively. […] All purine fragment peak AUCs used for calculations were normalized to caffeine standard AUCs at respective time points to account for run-to-run variations by HPLC. The amount of purine fragment consumed (% starting material) was plotted as a function of time.
Discussion: An HPLC assay for determining the reactivity of the purine-based probes with mimetics of amino acid residues was performed. […] Reaction progress was monitored by monitoring the disappearance of starting material and appearance of product via HPLC.

[2] = HPLC assay for profiling solution reactivity and stability of purine adduct fragments; type: physicochemical
Protocol: HPLC assay for profiling solution reactivity and stability of purine adduct fragments: The following reagents were prepared and stored on ice prior to use. 0.1 M solution of caffeine in acetonitrile, 1.0 M solution of amino acid mimetic (butanethiol, n-butylamine, p-cresol, propionamide and butyric acid), tetramethylguanidine (TMG), 1 M HOAc in ACN and 10 mM solution of purine fragment (e.g., one of the purine adducts shown in Scheme 8, above) in ACN mixture. 500 μL of fragment solution (i.e. purified Pa-1 through Pa-6) were transferred to a dram vial on ice. To the mixture, 5.5 μL of TMG and 5.5 μL of respective amino acid mimetic were added and solutions were stirred on ice for 6 h. To monitor reactivity, 50 μL aliquots were removed at indicated time points and quenched with 10 μL of a 1:1 mixture of caffeine and HOAc. Samples were injected (1 μL) and analyzed by reverse-phase HPLC on a Shimadzu 1100 Series spectrometer with UV detection at 254 nm. Reaction progress was evaluated by monitoring consumption of starting material (purine fragment) normalized to caffeine standard. Chromatographic separation was performed using a Phenomenex Kinetex C18 column (2.6 μm, 50×4.6 mm). Mobile phases A and B were composed of H2O+0.1% HOAc and ACN+0.1% HOAc, respectively. […] All purine fragment peak AUCs used for calculations were normalized to caffeine standard AUCs at respective time points to account for run-to-run variations by HPLC. The amount of purine fragment consumed (% starting material) was plotted as a function of time.

[3] = target: T1, human eEF-Sec (Uniprot ID P57772) (Homo sapiens, UniProt P57772); experiment: Competition assay: purine ligands block AHL-Pu-1 probe labeling of eEF-Sec; type: cell-based; details: for inhibition of eEF-Sec probe labeling: 10 μM ligand; for block of AHL-Pu-1 probe labeling of eEF-Sec: ligand 10 μM, AHL-Pu-1 25 μM; for block of AHL-Pu-1 probe labeling of eEF-Sec / block of AHL-Pu-1 probe labeling of eEF-Sec (FIG. 10E) / block of AHL-Pu-1 probe labeling of eEF-Sec (FIG. 10D): live cells; for block of AHL-Pu-1 probe labeling of eEF-Sec (FIG. 10E) / block of AHL-Pu-1 probe labeling of eEF-Sec (FIG. 10D): ligand 4 hr, AHL-Pu-1 25 μM 1 hr; for block of AHL-Pu-1 probe labeling of eEF-Sec (FIG. 10E): 0.05 to 25 μM; for block of AHL-Pu-1 probe labeling of eEF-Sec (FIG. 10D): 0.5 to 25 μM
T1 construct: FLAG; expressed in transfected cells; host or cells: HEK293T
T1 sequence (P57772 1-596): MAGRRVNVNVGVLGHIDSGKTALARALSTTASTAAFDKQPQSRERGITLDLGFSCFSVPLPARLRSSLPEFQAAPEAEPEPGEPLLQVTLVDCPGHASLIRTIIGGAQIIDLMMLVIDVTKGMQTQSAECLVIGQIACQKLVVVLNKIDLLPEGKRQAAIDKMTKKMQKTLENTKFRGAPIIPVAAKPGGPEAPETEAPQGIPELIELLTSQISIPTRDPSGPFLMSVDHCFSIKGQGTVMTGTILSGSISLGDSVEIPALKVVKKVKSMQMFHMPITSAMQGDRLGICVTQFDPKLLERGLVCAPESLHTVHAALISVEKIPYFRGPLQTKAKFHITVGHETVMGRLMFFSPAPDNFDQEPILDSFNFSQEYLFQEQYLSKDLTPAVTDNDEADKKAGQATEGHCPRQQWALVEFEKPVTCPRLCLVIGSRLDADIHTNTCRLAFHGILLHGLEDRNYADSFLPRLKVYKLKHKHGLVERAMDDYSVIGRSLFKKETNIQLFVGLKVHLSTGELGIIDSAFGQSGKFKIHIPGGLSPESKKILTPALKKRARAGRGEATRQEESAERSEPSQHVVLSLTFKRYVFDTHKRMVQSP
Protocol: FIG. 8 is a schematic diagram showing the workflow of a fluorescent gel-based competition assay using an activity-based probe (ABP) of the presently disclosed subject matter and a competitive inhibitor.
Methods: HEK293T cells were grown at 37° C. in 5% CO2 until 40% confluent. Recombinant human eEF-Sec (Uniprot ID P57772) was expressed by transient transfection for 48 hours. […] Lysates were spun at 100,000×g for 45 minutes. […] Purine probe modified proteins were conjugated to rhodamine-azide by CuAAC, subjected to SDS-PAGE analysis, and detected by in-gel fluorescence scanning. Comparison of non-transfected (Mock) and transfected proteomes was used to identify the recombinant eEF-Sec purine probe-labeled band. […] Reduction in fluorescent signals from purine probe labeling was indicative of Pi ligand inhibitory activity. Mut represents eEF-Sec mutant where cysteine residue 442 is mutated to alanine (C442A).

DM93 cells = experiment: Live cell activity of purine probes, gel-based (CuAAC rhodamine-azide, in-gel fluorescence); details: for labeling profile in live cells: DM93 cells, 25 μM, 4 hours; for reactivity of N7 versus N9 tautomers / probe labeling compared to Pu-5 and Pu-6: live DM93 cells; for probe labeling compared to Pu-5 and Pu-6: 6-chloro versus 2-chloro
Protocol: Live Cell Activity Method: DM93 cells were grown at 37° C. in 5% CO2 until 90% confluent. Once confluent cells were washed with serum free media and treated with halogenated purine probes at a final concentration of 25 μM (unless stated) for 4 hours (unless stated). Cells were then scraped and washed 3× with cold PBS and lysed in PBS+protease inhibitor. Lysates were spun at 100,000×g for 45 minutes. Halogen probe-modified proteins in soluble fractions were visualized by conjugating rhodamine-azide using copper-catalyzed azide-alkyne cycloaddition (CuAAC; 1 hour, room temperature), subjected to SDS-PAGE, and detected by in-gel fluorescence scanning. SDS-PAGE gels were also stained with Coomassie brilliant blue to determine protein load. All samples were loaded with equivalent amounts of protein. Thus, changes in purine probe labeling is not due to loading of different proteome amounts.

[4] = tested on: DM93 cells lysates (soluble fractions); experiment: Lysate activity of purine probes, gel-based (in-gel fluorescence); type: biochemical; details: for protein labeling activity in lysates: DM93 soluble fractions, 25 μM, 2 hrs, 37° C.; for reactivity of N7 versus N9 tautomers / labeling compared to AHL-Pu-5 and AHL-Pu-6: lysates; for labeling compared to AHL-Pu-5 and AHL-Pu-6: 6-chloro versus 2-chloro
Protocol: Lysate Activity Method: DM93 cells were grown at 37° C. in 5% CO2 until 90% confluent. Once confluent, cells were scraped and washed 3× times with cold PBS and lysed in PBS+protease inhibitor. Lysates were spun at 100,000×g for 45 minutes. Soluble fractions were treated with 25 μM of halogenated purine probes (unless stated) for 2 hrs (unless stated) at 37° C. Purine probe modified proteins were conjugated to rhodamine-azide by CuAAC, subjected to SDS-PAGE analysis, and detected by in-gel fluorescence scanning. SDS-PAGE gels were stained with Coomassie brilliant blue to determine protein load.

C#CCn1cnc2nc(N)nc(Cl)c21 [Pu-7, 6-chloro-2-amino-7-(prop-2-yn-1-yl)-7H-purine]
effect of amine group at the 2 position on electrophilic character [1]: dramatically reduces the electrophilic character

C#CCn1cnc2nc(Cl)nc(SCCCC)c21 [Pa-1, 6-(Butylthio)-2-chloro-7-(prop-2-yn-1-yl)-7H-purine]
reactivity with butanethiol or p-cresol ([2]; on ice 6 h): little reactivity

O=[N+]([O-])c1ccc(Cn2cnc3nc(Cl)nc(Cl)c32)cc1 [Pi-5, 2,6-Dichloro-7-(4-nitrobenzyl)-7H-purine]
inhibition of eEF-Sec probe labeling [3]: greater than 50%
block of AHL-Pu-1 probe labeling of eEF-Sec [3]: block AHL-Pu-1 probe labeling (25 μM) in a time dependent and concentration dependent manner
block of AHL-Pu-1 probe labeling of eEF-Sec (FIG. 10E) [3]: in a concentration dependent manner
block of AHL-Pu-1 probe labeling of eEF-Sec (FIG. 10D) [3]: in a concentration dependent manner

C#CCn1cnc2c(SCCCC)nc(Cl)nc21 [Pa-4, 6-(butylthio)-2-chloro-9-(prop-2-yn-1-yl)-9H-purine]
reactivity against nucleophiles, N9 versus N7 tautomer ([2]; Pa-4 versus Pa-1, butanethiol): appears to be more reactive against nucleophiles
reactivity of 2-halogen, 6-substituted versus 6-halogen, 2-substituted ([2]; Pa-4 versus Pa-3, butanethiol): higher reactivity
reactivity with nucleophiles ([2]; on ice 6 h): mild reactivity

C#CCn1cnc2c(SCCCC)nc(F)nc21 [Pa-6, 6-(butylthio)-2-fluoro-9-(prop-2-yn-1-yl)-9H-purine]
preference between nucleophiles ([2]; butanethiol versus p-cresol): equivalent reactivity against butanethiol and p-cresol
reactivity with nucleophiles ([2]; on ice 6 h): mild reactivity

C#CCn1cnc2nc(F)nc(Cl)c21 [Pu-9, 6-chloro-2-fluoro-7-(prop-2-yn-1-yl)-7H-purine]
adducts formed, based on HPLC traces [1]: likely form many different adducts
reaction kinetics compared to N9 counterparts [1]: accelerated reaction kinetics
reaction with butanethiol [1]: react with butanethiol
labeling profile in live cells (DM93 cells): robust labeling profiles
reactivity of N7 versus N9 tautomers (DM93 cells): more reactive
protein labeling activity in lysates [4]: highest protein labeling activity
reactivity of N7 versus N9 tautomers [4]: more reactive

O=[N+]([O-])c1ccc(Cn2cnc3c(Cl)nc(Cl)nc32)cc1 [Pi-6, 2,6-Dichloro-9-(4-nitrobenzyl)-9H-purine]
inhibition of eEF-Sec probe labeling [3]: loses all apparent activity

Clc1nc(Cl)c2c(ncn2Cc2ccccc2)n1 [Pi-1, 2,6-dichloro-7-benzyl-7H-purine]
block of AHL-Pu-1 probe labeling of eEF-Sec (FIG. 10E) [3]: in a concentration dependent manner
block of AHL-Pu-1 probe labeling of eEF-Sec (FIG. 10D) [3]: in a concentration dependent manner

C#CCn1cnc2c(Cl)nc(F)nc21 [Pu-10, 6-chloro-2-fluoro-9-(prop-2-yn-1-yl)-9H-purine]
adducts formed, based on HPLC traces [1]: likely form many different adducts
reaction with butanethiol [1]: react with butanethiol
labeling profile in live cells (DM93 cells): robust labeling profiles
protein labeling activity in lysates [4]: highest protein labeling activity

C#CCn1cnc2ncnc(Cl)c21 [Pu-3, 6-Chloro-7-(prop-2-yn-1-yl)-7H-purine]
effect of position of the halogen leaving group on reactivity [1]: the 6 position enhances reactivity
reaction kinetics compared to N9 counterparts [1]: accelerated reaction kinetics
reaction with butanethiol [1]: react with butanethiol
reactivity of N7 versus N9 tautomers (DM93 cells): more reactive
probe labeling compared to Pu-5 and Pu-6 (DM93 cells): Enhanced probe labeling
reactivity of N7 versus N9 tautomers [4]: more reactive
labeling compared to AHL-Pu-5 and AHL-Pu-6 [4]: Increased labeling

C#CCn1cnc2c(Cl)nc(N)nc21 [Pu-8, 2-Amino-6-chloro-9-(prop-2-yn-1-yl)-9H-purine]
effect of amine group at the 2 position on electrophilic character [1]: dramatically reduces the electrophilic character

C#CCn1cnc2c(Cl)ncnc21 [Pu-4, 6-Chloro-9-(prop-2-yn-1-yl)-9H-purine]
effect of position of the halogen leaving group on reactivity [1]: the 6 position enhances reactivity
probe labeling compared to Pu-5 and Pu-6 (DM93 cells): Enhanced probe labeling
labeling compared to AHL-Pu-5 and AHL-Pu-6 [4]: Increased labeling

O=S(=O)(N1CCOCC1)n1cnc2c(Cl)nc(Cl)nc21 [Pi-8, 4-((2,6-Dichloro-9H-purin-9-yl)sulfonyl)morpholine]
block of AHL-Pu-1 probe labeling of eEF-Sec [3]: block AHL-Pu-1 probe labeling (25 μM) in a time dependent and concentration dependent manner
block of AHL-Pu-1 probe labeling of eEF-Sec (FIG. 10D) [3]: in a concentration dependent manner
